Data reported in patent US6737383B1, “Herbicidal oxadiazolidines” (priority 1999, dated 2004).

Columns and labels:
bedstraw = experiment: Test B pre/postemergence bedstraw; type: in vivo, Galium aparine
Outline: (§1)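 Response is a visual 0-to-10 score relative to untreated plants, where 0 means no effect and 10 means complete control, taken twelve to sixteen days after application. Treatments went onto soil at planting and onto foliage of 1- to 4-leaf plants, using a surfactant-containing non-phytotoxic solvent.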

wild oat = experiment: Test B pre/postemergence wild oat; type: in vivo, Avena fatua
Outline: as §1

surinam grass = experiment: Test B pre/postemergence surinam grass; type: in vivo, Brachiaria decumbens
Outline: as §1

wheat = experiment: Test B pre/postemergence wheat; type: in vivo, Triticum aestivum
Outline: as §1

pigweed = experiment: Test B pre/postemergence pigweed; type: in vivo, Amaranthus retroflexus
Outline: as §1

cocklebur = experiment: Test B pre/postemergence cocklebur; type: in vivo, Xanthium strumarium
Outline: as §1

morningglory = experiment: Test B pre/postemergence morningglory; type: in vivo, Ipomoea hederacea
Outline: as §1

purple nutsedge = experiment: Test B pre/postemergence purple nutsedge; type: in vivo, Cyperus rotundus
Outline: as §1

rape = experiment: Test B pre/postemergence rape; type: in vivo, Brassica napus
Outline: as §1

sugar beet = experiment: Test B pre/postemergence sugar beet; type: in vivo, Beta vulgaris
Outline: as §1

blackgrass = experiment: Test B pre/postemergence blackgrass; type: in vivo, Alopecurus myosuroides
Outline: as §1

crabgrass = experiment: Test B pre/postemergence crabgrass; type: in vivo, Digitaria sanguinalis
Outline: as §1

soybean = experiment: Test B pre/postemergence soybean; type: in vivo, Glycine max
Outline: as §1

giant foxtail = experiment: Test B pre/postemergence giant foxtail; type: in vivo, Setaria faberii
Outline: as §1

velvetleaf = experiment: Test B pre/postemergence velvetleaf; type: in vivo, Abutilon theophrasti
Outline: as §1

corn = experiment: Test B pre/postemergence corn; type: in vivo, Zea mays
Outline: as §1

[1] = Postemergence, Rate 62 g/ha, scale of 0 to 10, 0 is no effect, 10 is complete control
[2] = Postemergence, Rate 125 g/ha, scale 0 to 10, 0 is no effect, 10 is complete control
[3] = Postemergence, Rate 500 g/ha, scale 0 to 10, 0 is no effect, 10 is complete control
[4] = Preemergence, Rate 62 g/ha, scale 0 to 10 (0 no effect, 10 complete control)
[5] = Preemergence, Rate 125 g/ha, scale 0 to 10, 0 is no effect, 10 is complete control
[6] = Preemergence, Rate 500 g/ha, scale of 0 to 10 where 0 is no effect and 10 is complete control
[7] = Rate 250 g/ha, Postemergence, scale of 0 to 10 where 0 is no effect and 10 is complete control

CC(C)N(C(=O)n1oc(=O)n(CCC(F)(F)F)c1=O)c1ccc(Cl)cc1 [Compound 554]
Bedstraw plant response rating (bedstraw; [1]): 5
Bedstraw plant response rating (bedstraw; [2]): 5
Plant response rating, Bedstraw (bedstraw; [3]): 9
Bedstraw plant response rating (bedstraw; [4]): 0
Bedstraw plant response rating (bedstraw; [5]): 0
Bedstraw plant response rating (0 to 10 scale) (bedstraw; Preemergence, Rate 250 g/ha): 0
Bedstraw plant response rating (bedstraw; [6]): 0
Plant response rating, Bedstraw (bedstraw; [7]): 7
Wild oats plant response rating (wild oat; [1]): 0
Wild oats plant response rating (wild oat; [4]): 0
Wild oats plant response rating (wild oat; [5]): 2
Wild oats plant response rating (0 to 10 scale) (wild oat; Preemergence, Rate 250 g/ha): 2
Wild oats plant response rating (wild oat; [6]): 9
Plant response rating, Wild oats (wild oat; [7]): 2
B. signalgrass plant response rating (surinam grass; [1]): 0
B. signalgrass plant response rating (surinam grass; [2]): 0
Plant response rating, B. signalgrass (surinam grass; [3]): 3
B. signalgrass plant response rating (surinam grass; [4]): 7
B. signalgrass plant response rating (surinam grass; [5]): 7
B. signalgrass plant response rating (0 to 10 scale, 0 is no effect, 10 is complete control) (surinam grass; Preemergence, Rate 250 g/ha): 6
B. signalgrass plant response rating (surinam grass; [6]): 10
Plant response rating, B. signalgrass (surinam grass; [7]): 0
Wheat plant response rating (wheat; [1]): 0
Wheat plant response rating (wheat; [4]): 3
Wheat plant response rating (wheat; [5]): 3
Wheat plant response rating (wheat; [6]): 6
Plant response rating, Wheat (wheat; [7]): 2
Redroot pigweed plant response rating (pigweed; [1]): 0
Redroot pigweed plant response rating (pigweed; [4]): 9
Redroot pigweed plant response rating (pigweed; [6]): 10
Plant response rating, Redroot pigweed (pigweed; [7]): 7
Cocklebur plant response rating (cocklebur; [1]): 0
Cocklebur plant response rating (cocklebur; [2]): 0
Plant response rating, Cocklebur (cocklebur; [3]): 3
Cocklebur plant response rating (cocklebur; [4]): 0
Cocklebur plant response rating (cocklebur; [5]): 0
Cocklebur plant response rating (0 to 10 scale) (cocklebur; Preemergence, Rate 250 g/ha): 0
Cocklebur plant response rating (cocklebur; [6]): 0
Plant response rating, Cocklebur (cocklebur; [7]): 0
Morningglory plant response rating (morningglory; [1]): 1
Morningglory plant response rating (morningglory; [2]): 2
Plant response rating, Morningglory (morningglory; [3]): 7
Morningglory plant response rating (morningglory; [5]): 0
Morningglory plant response rating (0 to 10 scale) (morningglory; Preemergence, Rate 250 g/ha): 0
Morningglory plant response rating (morningglory; [6]): 0
Plant response rating, Morningglory (morningglory; [7]): 5
Nutsedge plant response rating (purple nutsedge; [1]): 0
Nutsedge plant response rating (purple nutsedge; [2]): 0
Plant response rating, Nutsedge (purple nutsedge; [3]): 0
Nutsedge plant response rating (purple nutsedge; [4]): 0
Nutsedge plant response rating (purple nutsedge; [5]): 0
Nutsedge plant response rating (0 to 10 scale) (purple nutsedge; Preemergence, Rate 250 g/ha): 0
Nutsedge plant response rating (purple nutsedge; [6]): 0
Plant response rating, Nutsedge (purple nutsedge; [7]): 0
Rape plant response rating (rape; [1]): 0
Rape plant response rating (rape; [2]): 0
Plant response rating, Rape (rape; [3]): 3
Rape plant response rating (rape; [4]): 0
Rape plant response rating (rape; [5]): 0
Rape plant response rating (0 to 10 scale) (rape; Preemergence, Rate 250 g/ha): 0
Rape plant response rating (rape; [6]): 3
Plant response rating, Rape (rape; [7]): 0
Sugarbeets plant response rating (sugar beet; [1]): 0
Sugarbeets plant response rating (sugar beet; [4]): 0
Sugarbeets plant response rating (sugar beet; [5]): 0
Sugarbeets plant response rating (0 to 10 scale) (sugar beet; Preemergence, Rate 250 g/ha): 0
Sugarbeets plant response rating (sugar beet; [6]): 6
Plant response rating, Sugarbeets (sugar beet; [7]): 7
Blackgrass plant response rating (blackgrass; [1]): 0
Blackgrass plant response rating (blackgrass; [2]): 3
Blackgrass plant response rating (blackgrass; [5]): 4
Blackgrass plant response rating (0 to 10 scale) (blackgrass; Preemergence, Rate 250 g/ha): 4
Blackgrass plant response rating (blackgrass; [6]): 7
Plant response rating, Blackgrass (blackgrass; [7]): 7
Crabgrass plant response rating (crabgrass; [1]): 0
Plant response rating, Crabgrass (crabgrass; [3]): 9
Crabgrass plant response rating (crabgrass; [4]): 9
Crabgrass plant response rating (crabgrass; [5]): 10
Crabgrass plant response rating (crabgrass; [6]): 10
Plant response rating, Crabgrass (crabgrass; [7]): 9
Soybean plant response rating (soybean; [1]): 2
Plant response rating, Soybean (soybean; [3]): 3
Soybean plant response rating (soybean; [4]): 0
Soybean plant response rating (soybean; [5]): 0
Soybean plant response rating (0 to 10 scale) (soybean; Preemergence, Rate 250 g/ha): 3
Soybean plant response rating (soybean; [6]): 3
Plant response rating, Soybean (soybean; [7]): 3
Giant foxtail plant response rating (giant foxtail; [1]): 2
Giant foxtail plant response rating (giant foxtail; [2]): 6
Plant response rating, Giant foxtail (giant foxtail; [3]): 8
Giant foxtail plant response rating (giant foxtail; [4]): 9
Giant foxtail plant response rating (giant foxtail; [5]): 9
Giant foxtail plant response rating (0 to 10 scale) (giant foxtail; Preemergence, Rate 250 g/ha): 9
Giant foxtail plant response rating (giant foxtail; [6]): 10
Plant response rating, Giant foxtail (giant foxtail; [7]): 8
Velvetleaf plant response rating (velvetleaf; [1]): 0
Plant response rating, Velvetleaf (velvetleaf; [3]): 0
Velvetleaf plant response rating (velvetleaf; [4]): 0
Velvetleaf plant response rating (velvetleaf; [5]): 0
Velvetleaf plant response rating (0 to 10 scale) (velvetleaf; Preemergence, Rate 250 g/ha): 0
Velvetleaf plant response rating (velvetleaf; [6]): 0
Plant response rating, Velvetleaf (velvetleaf; [7]): 0
Corn plant response rating (corn; [1]): 0
Corn plant response rating (corn; [2]): 0
Plant response rating, Corn (corn; [3]): 0
Corn plant response rating (corn; [4]): 0
Corn plant response rating (corn; [5]): 0
Corn plant response rating (0 to 10 scale) (corn; Preemergence, Rate 250 g/ha): 0
Corn plant response rating (corn; [6]): 2
Plant response rating, Corn (corn; [7]): 0
